Values quoted from earlier work, collected in US7220434B2, “Dual-release compositions of a cyclooxygenase-2 inhibitor” (Pharmacia Corporation (of Pfizer, Inc.), priority 2000, dated 2007).

Assays:
[1] = conventionally formulated for oral delivery

solubility in water	solubility in aqueous media (aqueous media)	SMILES	half-life [1]
low solubility in water		CS(=O)(=O)c1ccc(C2=C(c3ccccc3)C(=O)OC2)cc1 [rofecoxib, 3-phenyl-4-[4-(methylsulfonyl)phenyl]-5H-furan-2-one]	sufficient to provide therapeutic benefit over a 24-hour period
low solubility in water		COc1ccc(-c2cc(C(F)F)nn2-c2ccc(S(N)(=O)=O)cc2)cc1F [deracoxib]	
low solubility in water	unusually insoluble	Cc1ccc(-c2cc(C(F)(F)F)nn2-c2ccc(S(N)(=O)=O)cc2)cc1 [celecoxib, 4-[5-(4-methylphenyl)-3-(trifluoromethyl)-1H-pyrazol-1-yl]benzenesulfonamide]	
low solubility in water		Cc1onc(-c2ccccc2)c1-c1ccc(S(N)(=O)=O)cc1 [valdecoxib, 4-[5-methyl-3-phenylisoxazol-4-yl]benzenesulfonamide]	
